Earlier results in patent US20050049232A1, “Composition” (priority 2001, published 2005).

Test system: androgenic alopecia patients
Conditions: topical solutions, alone or in combination with skin penetration enhancers such as DMSO

Nc1cc(N2CCCCC2)nc(N)[n+]1[O-] [minoxidil, 2,4-diamino-6-piperidino-pyrimidine-3-oxide]
patients with moderate to dense regrowth of hair: less than 40%
